Key:
[1] = molecular target: T1, HIV-1 RT double mutant K103N/Y181C (Human immunodeficiency virus type 1 group M subtype B, UniProt P03366, K702N/Y780C); assay: biochemical
T1 construct: HIV-1 wild type reverse transcriptase as well as the clinically significant double mutant K103N/Y181C
Method: (§1) Utilizing the Reverse Transcriptase (RT) Assay described below, compounds were tested for their ability to inhibit the RNA-dependent DNA polymerase activity of HIV-1 RT. Certain specific compounds described in the Examples and in Tables 1-4, were so tested. The results of this testing appear in Table 5 as ranges of IC50 (nM) and EC50 (nM).
(§2) Reverse Transcriptase (RT) Assays

[2] = molecular target: T2, HIV-1 wild type reverse transcriptase (Human immunodeficiency virus type 1 group M subtype B, UniProt P03366); assay: biochemical; conditions: wild type RT; read-out: IC50 WT RT
T2 construct: HIV-1 wild type reverse transcriptase
Method: as §1, §2

[3] = tested on: HIV-1 wild type; assay: microbe, parasite or virus in culture; assay type: cell-based; conditions: Human immunodeficiency virus 1, read-out: EC50 WT RT (nM)
[4] = tested on: HIV-1 double mutant K103N/Y181C; assay: microbe, parasite or virus in culture; assay type: cell-based; conditions: Human immunodeficiency virus 1, read-out: EC50 K103N/Y181C (nM)

SMILES | IC50 [1] [nM] | IC50 [2] [nM] | EC50 [3] [nM] | EC50 [4] [nM]
CCN1c2ncc(CCOc3ccc(-c4cccc(C(=O)O)c4)cc3C)cc2C(=O)N(C)c2cccnc21 [Entry 1013, 4′-[2-(11-Ethyl-6,11-dihydro-5-methyl-6-oxo-5H-dipyrido[3,2-b:2′,3′-e][1,4]diazepin-8-yl)ethoxy]-3′-methyl-[1,1′-biphenyl]-3-carboxylic acid] | < 50 | < 50 | < 10 | 10 to 50
CCN1c2ncc(CCOc3ccc(C(=O)Nc4ccc(CC(=O)O)cc4)cc3C)cc2C(=O)N(C)c2cccnc21 [Entry 3005] | < 50 | < 50 | < 10 | 10 to 50
CCN1c2ncc(CCOc3ccc(C(=O)Nc4cccc(CC(=O)O)c4)cc3C)cc2C(=O)N(C)c2cccnc21 [Entry 3010] | < 50 | < 50 | 10 to 50 | 10 to 50

— US6806265B2, “Non-nucleoside reverse transcriptase inhibitors” (priority 2002, dated 2004)
